Measurements reported in patent publication US20240246981A1, “[…] DERIVATIVES AS INHIBITORS OF […]-PEPTIDE CYCLOTRANSFERASE AND […]-PEPTIDE CYCLOTRANSFERASE LIKE PROTEIN” (Boehringer Ingelheim International GmbH, priority 2022, published 2024).
Like-named read-outs stand apart in the source and are kept apart here.

Columns and labels:
[1] = tested on: SIRPα signalling induced by A549 cells; assay: Assay B: SIRPα signalling assay using A549 cells; type: cell-based, human; details: Homo sapiens
Method: Two cell types are independently used: the Raji cell line (lymphoblastlike human cell line derived from B lymphocytes from a Burkitt's lymphoma patient in 1963) and A549 cells (adenocarcinomic human alveolar basal epithelial cells).
Test compounds were dissolved in 100% DMSO and serially diluted into a white 384-well microtiter cell culture plate (PerkinElmer #60076780 in case of Raji assay; PDL-coated plates Greiner #781945 in case of A549 assay). 5000 Raji cells (ATCC #CC86) or 5000 A549 cells (ATCC #CCL-185) in Assay Complete Cell Plating reagent 30 (DiscoverX 93-0563R30B) were added per well. The assay plate was incubated for 48 h at 37° C., 95% humidity and 5% CO2. 15000 reporter cells (Jurkat PathHunter SIRPα V1, DiscoverX #93-1135C19) were added to each well, and the plate was incubated for 5 h at 37° C., 95% humidity and 5% CO2. Bioassay reagent 1 of the PathHunter Bioassay detection kit (DiscoverX 93-0001) was added to each well of the plate using a multichannel pipette followed by a 15 min incubation at room temperature. Afterwards bioassay reagent 2 was added followed by 60 min incubation at room temperature (incubation in the dark).
The analysis of the data was performed using the luminescence signal generated by beta-galactosidase in the PathHunter reporter cell line. The luminescence measurement was done using a Pherastar Multi-Mode Reader. Dose-response curves & IC50 data were calculated with 4-parameter sigmoidal dose response formula.

[2] = Assay C: permeability in CACO-2 cells; type: in vitro ADME; details: human, pH 7.2; for Papp A→B at 2 h / Papp A→B: Caco-2, apical to basolateral; for efflux ratio at 2 h / efflux ratio: Caco-2
Method: Compounds are dissolved in appropriate solvent (like DMSO, 1-20 mM stock solutions). […] The transport solution (TL) is applied to the apical or basolateral donor side for measuring A-B or B-A permeability (3 filter replicates), respectively. Samples are collected at the start and end of experiment from the donor and at various time intervals for up to 2 hours also from the receiver side for concentration measurement by HPLC-MS/MS or scintillation counting. Sampled receiver volumes are replaced with fresh receiver solution.

[3] = tested on: SIRPα signalling induced by Raji cells; assay: Assay B: SIRPα signalling assay using Raji cells; type: cell-based, human; details: Homo sapiens
Method: Bioassay reagent 1 of the PathHunter Bioassay detection kit (DiscoverX 93-0001) was added to each well of the plate using a multichannel pipette followed by a 15 min incubation at room temperature. Afterwards bioassay reagent 2 was added followed by 60 min incubation at room temperature (incubation in the dark).
The analysis of the data was performed using the luminescence signal generated by beta-galactosidase in the PathHunter reporter cell line. The luminescence measurement was done using a Pherastar Multi-Mode Reader.

QPCTL = QPCTL (Homo sapiens (Human), UniProt Q9NXS2); assay: Assay A: biochemical QPCTL activity assay (MALDI-TOF MS); details: compounds of the invention, Table 2; read-out: Inhibition of QPCTL: IC50
QPCTL, sequence (Q9NXS2 whole entry): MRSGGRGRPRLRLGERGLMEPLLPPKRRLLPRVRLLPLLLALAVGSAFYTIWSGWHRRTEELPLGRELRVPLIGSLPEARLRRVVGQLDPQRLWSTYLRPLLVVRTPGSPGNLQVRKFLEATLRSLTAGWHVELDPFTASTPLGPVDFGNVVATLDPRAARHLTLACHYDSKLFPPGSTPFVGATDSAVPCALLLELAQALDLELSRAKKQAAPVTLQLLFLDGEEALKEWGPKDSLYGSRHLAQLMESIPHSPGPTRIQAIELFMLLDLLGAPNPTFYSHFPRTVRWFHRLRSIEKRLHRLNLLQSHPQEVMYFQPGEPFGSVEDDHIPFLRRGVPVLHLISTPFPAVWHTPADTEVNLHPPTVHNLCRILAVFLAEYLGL
Method: (§1) QPCT or QPCTL dependent conversion of N-terminal glutamine to pyroglutamate of CD47 was monitored via MALDI-TOF MS. Test compounds were dissolved in 100% DMSO and serially diluted into clear 1,536-well microtiter plates. Enzymatic reactions were set up in assay buffer containing 20 mM Tris pH 7.5, 0.1 mM TCEP, 0.01% BSA, and 0.001% Tween20. […] The plates were incubated for 10 min in a humidified incubator at 24° C. Subsequently, 2.5 μL of CD47 peptide substrate surrogate (^19[…]^33) was added to each well (final concentration: 10 μM for QPCTL/20 μM for QPCT). The plates were mixed for 30 sec at 1,000 rpm and subsequently incubated for 40 min in a humidified incubator at 24° C. […] The plates were sealed with an adhesive foil, mixed for 30 s at 1,000 rpm and stored at room temperature until preparation of the MALDI target plates. […] QPCT or QPCTL activity was monitored by calculating the ratio between product and internal standard signals followed by normalization to high (100% activity) and low (0% activity) controls. Determination of compound potencies was obtained by fitting the dose-response data to a four-parameter logistical equation.

QPCT = QPCT (Homo sapiens (Human), UniProt Q16769); assay: Assay A: biochemical QPCT activity assay (MALDI-TOF MS); details: compounds of the invention, Table 2; read-out: Inhibition of QPCT: IC50
QPCT, sequence (Q16769 29-361): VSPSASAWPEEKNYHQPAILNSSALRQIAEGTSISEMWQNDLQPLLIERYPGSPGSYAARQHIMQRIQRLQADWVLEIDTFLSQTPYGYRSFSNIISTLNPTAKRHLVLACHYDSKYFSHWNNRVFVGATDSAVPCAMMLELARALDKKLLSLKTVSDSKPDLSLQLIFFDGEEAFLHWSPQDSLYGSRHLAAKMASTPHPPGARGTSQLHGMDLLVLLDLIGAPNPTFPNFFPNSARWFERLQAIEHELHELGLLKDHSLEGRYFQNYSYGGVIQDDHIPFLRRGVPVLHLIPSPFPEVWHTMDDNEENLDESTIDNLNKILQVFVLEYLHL
Method: as §1

[4] = compounds of the invention, Table 4, read-out: Inhibition of SIRα signalling induced by A549 cells: IC50
[5] = compounds of the invention, Table 7
[6] = compounds of the invention, Table 4, read-out: Inhibition of SIRα signalling induced by Raji cells: IC50

Compound | IC50 [1, 4] [µM] | Papp A→B at 2 h [2, 5] [×10⁻⁶ cm/s] | efflux ratio at 2 h [2, 5] | IC50 [3, 6] [µM] | IC50 (QPCTL) [µM] | IC50 (QPCT) [µM] | Papp A→B [2, 5] [×10⁻⁶ cm/s] | efflux ratio [2, 5] | IC50 ([1]; prior art compounds, Table 5, read-out: Inhibition of SIRPα signalling induced by A549 cells: IC50) [µM] | Papp A→B at 2 h ([2]; prior art compounds, Table 8) [×10⁻⁶ cm/s] | IC50 ([3]; prior art compounds, Table 5, read-out: Inhibition of SIRPα signalling induced by Raji cells: IC50) [µM]
Cn1cnnc1C1CCN(c2c(C#N)cccc2-c2ccc(F)nc2)CC1 [Example 1] | 0.009 | 28 | – | – | – | – | – | – | – | – | –
Cn1cnnc1C1CCN(c2c(C#N)cccc2-c2cnc(F)c(OC3CCC3)c2)CC1 [Example 34] | 0.025 | 22 | 3.3 | 0.052 | – | – | – | – | – | – | –
Cn1cnnc1C1CCN(c2c(C#N)cccc2-c2cnc(F)c(OC(F)F)c2)CC1 [Example 37] | 0.113 | 23 | 2 | 0.325 | – | – | – | – | – | – | –
Cn1cnnc1C1CCN(c2c(C#N)cccc2-c2cnc(F)c(Oc3ccccc3)c2)CC1 [Example 38] | 0.098 | 20 | 1.9 | 0.372 | – | – | – | – | – | – | –
Cn1cnnc1C1CCN(c2c(C#N)cccc2-c2cnc3nn(C)c(C(F)(F)F)c3c2)CC1 [Example 41] | 0.097 | 2.9 | – | 0.088 | – | – | – | – | – | – | –
Cn1cnnc1C1(F)CCN(c2c(C#N)cccc2-c2cnc3nn(CC(F)(F)F)cc3c2)CC1 [Example 55] | 0.044 | 1.4 | 40 | 0.038 | – | – | – | – | – | – | –
Cn1cnnc1C1(F)CCN(c2c(C#N)cccc2-c2cnc(=O)n(C)c2)CC1 [Example 58] | 0.249 | < 0.3 | > 4.3 | 0.493 | – | – | – | – | – | – | –
Cn1cnnc1C1(C)CCN(c2c(C#N)cccc2-c2cccnc2)CC1 [Example 65] | – | 9.8 | 4.9 | 1.04 | – | – | – | – | – | – | –
Cn1cnnc1C1CCN(c2c(C#N)cccc2-c2cnsc2)CC1 [compound 2] | 0.04 | – | – | 0.715 | 0.012 | 0.051 | 25 | 1.8 | – | – | –
Cc1cc(F)ncc1-c1cccc(C#N)c1N1CCC(c2nncn2C)CC1 [compound 4] | 0.013 | – | – | 0.088 | 0.002 | 0.012 | 16 | 4.1 | – | – | –
Cc1cc(-c2cccc(C#N)c2N2CCC(c3nncn3C)CC2)cnc1F [compound 5] | 0.026 | – | – | 0.093 | 0.003 | 0.012 | 23 | 1.6 | – | – | –
Cn1cnnc1C1CCN(c2c(C#N)cccc2-c2cnc3nonc3c2)CC1 [compound 7] | 0.067 | – | – | 0.17 | 0.002 | 0.012 | 1.5 | 19.3 | – | – | –
Cc1ccncc1-c1cccc(C#N)c1N1CCC(c2nncn2C)CC1 [compound 8] | 0.348 | – | – | 0.257 | 0.006 | 0.031 | 3.9 | 9.5 | – | – | –
Cn1cnnc1C1CCN(c2c(C#N)cccc2-c2cncc(CO)c2)CC1 [compound 9] | – | – | – | 0.309 | 0.011 | 0.038 | – | – | – | – | –
CC#Cc1cncc(-c2cccc(C#N)c2N2CCC(c3nncn3C)CC2)c1 [compound 10] | 0.348 | – | – | 0.692 | 0.018 | 0.075 | 25 | 2.2 | – | – | –
Cc1cncc(-c2cccc(C#N)c2N2CCC(c3nncn3C)CC2)c1 [compound 11] | 0.436 | – | – | 0.372 | 0.021 | 0.128 | 8.6 | 7.7 | – | – | –
Cn1cnnc1C1CCN(c2c(C#N)cccc2-c2cnc3c(c2)CCCO3)CC1 [compound 12] | 0.243 | – | – | 0.421 | 0.012 | 0.057 | 2.7 | 23.7 | – | – | –
Cn1cnnc1C1CCN(c2c(C#N)cccc2-c2cncc(C(N)=O)c2)CC1 [compound 14] | – | – | – | 0.761 | 0.003 | 0.021 | 0.1 | 50.9 | – | – | –
Cn1cnnc1C1CCN(S(=O)(=O)c2cccc(Nc3ccc(F)nc3)c2)CC1 [compound 21, reference compound] | – | – | – | – | – | – | – | – | > 10 | 0.7 | > 10
Cn1cnnc1C1CCN(c2c(C#N)cccc2-c2cncc(-c3ccccc3)c2)CC1 [compound 21, reference compound] | 0.53 | 33 | 2.8 | 1.32 | – | – | – | – | – | – | –
Cn1cnnc1C1CCN(c2c(C#N)cccc2-c2cncc(OC(F)F)c2)CC1 [compound 23, reference compound] | 0.342 | 10.1 | 7.1 | 1.07 | – | – | – | – | – | – | –
COC(=O)c1cncc(-c2cccc(C#N)c2N2CCC(c3nncn3C)CC2)c1 [compound 27] | – | – | – | 0.483 | 0.015 | 0.1 | 4.4 | 13.4 | – | – | –
Cn1cnnc1C1(F)CCN(c2c(C#N)cccc2-c2cnc(O)nc2)CC1 [compound 54] | 0.205 | – | – | 0.851 | – | 0.001 | 0.1 | 11.1 | – | – | –
Cn1cnnc1C1(F)CCN(c2c(C#N)cccc2-c2cnc3nn(CC(F)F)cc3c2)CC1 [compound 60] | 0.016 | – | – | 0.017 | – | 0.001 | 0.5 | 100 | – | – | –
Cn1cnnc1C1(F)CCN(c2c(C#N)cccc2-c2cnc3nc(C(C)(C)C)[nH]c3c2)CC1 [compound 69] | 0.01 | – | – | 0.011 | – | – | 0.5 | 56.9 | – | – | –
